# Results: patent US6855710B2, “Substituted indolines with an inhibitory effect on various kinases and complexes of CDKs” (Boehringer Ingelheim Pharma KG, priority 1998, dated 2005)
row,Structure (SMILES),melting point
1,Cl.NCCc1ccc(N/C(=C2\C(=O)Nc3ccc([N+](=O)[O-])cc32)c2ccccc2)cc1,335 to 340 °C (dec.)
2,"CC(=O)N(CCCN(C)C)c1ccc(N/C(=C2\C(=O)Nc3ccccc32)c2ccccc2)cc1 [Example 344, (Z)-3-{1-[4-(N-(3-dimethylaminopropyl)-N-acetyl-amino)-phenylamino]-1-phenyl-methylidene}-2-indolinone]",227 °C
3,"CN(C)CCN(c1ccc(N/C(=C2\C(=O)Nc3ccccc32)c2ccccc2)cc1)S(=O)(=O)c1ccccc1 [Example 312, (Z)-3-{1-[4-(N-(2-dimethylaminoethyl)-N-phenylsulphonyl-amino)-phenylamino]-1-phenyl-methylidene}-2-indolinone]",241 to 243 °C
4,"CC(C)(C)OC(=O)NCc1ccc(N/C(=C2\C(=O)Nc3ccc([N+](=O)[O-])cc32)c2ccc(CNC(=O)c3ccccc3C(=O)O)cc2)cc1 [Example 147, (Z)-3-{1-[4-tert.butoxycarbonylaminomethyl-phenylamino]-1-[4-(2-carboxyphenyl)-carbonylaminomethyl-phenyl]-methylidene}-5-nitro-2-indolinone]",138 °C (dec.)
5,"O=C1Nc2ccc([N+](=O)[O-])cc2/C1=C(/Nc1ccc(CN2CCS(=O)(=O)CC2)cc1)c1ccccc1 [Example 231, (Z)-3-{1-[4-((1,1-dioxothiomorpholino)-methyl)-phenylamino]-1-phenyl-methylidene}-5-nitro-2-indolinone]",328 to 329 °C (dec.)
6,"O=C1Nc2ccc([N+](=O)[O-])cc2/C1=C(/Nc1ccc(NCCN2CCOCC2)cc1)c1ccccc1 [Example 332, (Z)-3-{1-[4-(2-morpholinoethylamino)-phenylamino]-1-phenyl-methylidene}-5-nitro-2-indolinone]",253 °C
7,"CN(C(=O)CN1CCOCC1)c1ccc(N/C(=C2\C(=O)Nc3ccc([N+](=O)[O-])cc32)c2ccccc2)cc1 [Example 102, (Z)-3-{1-[4-(N-morpholinomethylcarbonyl-N-methyl-amino)-phenylamino]-1-phenyl-methylidene}-5-nitro-2-indolinone]",293 to 295 °C
8,"CC(C)(C)OC(=O)NCc1ccc(N/C(=C2\C(=O)Nc3ccc([N+](=O)[O-])cc32)c2ccc(CN)cc2)cc1 [Example 148, (Z)-3-[1-(4-tert.butoxycarbonylaminomethyl-phenylamino)-1-(4-aminomethyl-phenyl)-methylidene]-5-nitro-2-indolinone]",220 to 223 °C
9,"O=C(O)CN(C(=O)c1ccccc1)c1ccc(N/C(=C2\C(=O)Nc3ccccc32)c2ccccc2)cc1 [Example 361, (Z)-3-{1-[4-(N-carboxymethyl-N-benzoyl-amino)-phenylamino]-1-phenyl-methylidene}-2-indolinone]",277 °C (dec.)
10,"CC(C)(C)OC(=O)NCC(=O)NCc1ccc(N/C(=C2\C(=O)Nc3ccc([N+](=O)[O-])cc32)c2ccccc2)cc1 [Example 144, (Z)-3-[1-(4-tert.butoxycarbonylaminomethylcarbonylaminomethyl-phenylamino)-1-phenyl-methylidene]-5-nitro-2-indolinone]",219 to 221 °C (dec.)
11,"CN(C(=O)CN1CCCCC1)c1ccc(N/C(=C2\C(=O)Nc3ccccc32)c2ccccc2)cc1 [Example 50, (Z)-3-{1-[4-(N-piperidinomethylcarbonyl-N-methyl-amino)-phenylamino]-1-phenyl-methylidene}-2-indolinone]",230 to 235 °C (dec.)
12,"CC(=O)NCc1ccc(N/C(=C2\C(=O)Nc3ccccc32)c2ccccc2)cc1 [Example 56, (Z)-3-[1-(4-acetylaminomethyl-phenylamino)-1-phenyl-methylidene]-2-indolinone]",207 to 210 °C
13,"CCS(=O)(=O)N(CC(=O)N(C)CCN(C)C)c1ccc(N/C(=C2\C(=O)Nc3ccc([N+](=O)[O-])cc32)c2ccccc2)cc1 [Example 296, (Z)-3-{1-[4-(N—((N-(2-dimethylaminoethyl)-N-methyl-amino)-carbonylmethyl)-N-ethylsulphonyl-amino)-phenylamino]-1-phenyl-methylidene}-5-nitro-2-indolinone]",117 °C
14,Cl.NC(Cc1ccc(N/C(=C2\C(=O)Nc3ccc([N+](=O)[O-])cc32)c2ccccc2)cc1)C(=O)O (centres unmarked),225 °C (dec.)
15,"COC(=O)C(Cc1ccc(N/C(=C2\C(=O)Nc3ccc([N+](=O)[O-])cc32)c2ccccc2)cc1)NC(=O)OC(C)(C)C (centres unmarked) [Example 225, (Z)-3-{1-[4-(2-tert.butoxycarbonylamino-2-methoxycarbonyl-ethyl)-phenylamino]-1-phenyl-methylidene}-5-nitro-2-indolinone]",139 °C
16,"CC(C)CN(Cc1ccc(N/C(=C2\C(=O)Nc3ccc([N+](=O)[O-])cc32)c2ccccc2)cc1)CC(C)C [Example 163, (Z)-3-[1-(4-Diisobutylaminomethyl-phenylamino)-1-phenyl-methylidene]-5-nitro-2-indolinone]",204 to 207 °C
17,"O=C1Nc2ccc([N+](=O)[O-])cc2/C1=C(/Nc1ccc(CN2CCCCC2)cc1)c1ccc(C(F)(F)F)cc1 [Example 442, (Z)-3-[1-(4-piperidinomethyl-phenylamino)-1-(4-trifluoromethyl-phenyl)-methylidene]-5-nitro-2-indolinone]",300 to 302 °C
18,"CN(C(=O)CN1C(=O)c2ccccc2C1=O)c1ccc(N/C(=C2\C(=O)Nc3ccccc32)c2ccccc2)cc1 [Example 365, (Z)-3-{1-[4-(N-phthalimidomethylcarbonyl-N-methyl-amino)-phenylamino]-1-phenyl-methylidene}-2-indolinone]",278 to 280 °C
19,"CN(CC(=O)O)S(=O)(=O)c1ccc(N/C(=C2\C(=O)Nc3ccccc32)c2ccccc2)cc1 [Example 409, (Z)-3-{1-[4-(N-carboxymethyl-N-methyl-aminosulphonyl)-phenylamino]-1-phenyl-methylidene}-2-indolinone]",237 °C (dec.)
20,"CS(=O)(=O)N(CC(=O)O)c1cccc(N/C(=C2\C(=O)Nc3ccccc32)c2ccccc2)c1 [Example 318, (Z)-3-{1-[3-(N-carboxymethyl-N-methylsulphonyl-amino)-phenylamino]-1-phenyl-methylidene}-2-indolinone]",270 °C (dec.)
21,"CN(C)Cc1ccc(N/C(=C2\C(=O)Nc3ccc([N+](=O)[O-])cc32)c2ccc(Cl)cc2)cc1 [Example 222, (Z)-3-[1-(4-dimethylaminomethyl-phenylamino)-1-(4-chlorophenyl)-methylidene]-5-nitro-2-indolinone]",311 °C
22,"O=C1Nc2ccc([N+](=O)[O-])cc2/C1=C(/Nc1ccc(CN2CCCCCC2)cc1)c1ccccc1 [Example 119, (Z)-3-[1-(4-hexamethyleneiminomethyl-phenylamino)-1-phenyl-methylidene]-5-nitro-2-indolinone]",220 °C
23,"CN(Cc1ccccc1)Cc1ccc(N/C(=C2\C(=O)Nc3ccc([N+](=O)[O-])cc32)c2ccccc2)cc1 [Example 238, (Z)-3-{1-[4-(N-benzyl-N-methyl-aminomethyl)-phenylamino]-1-phenyl-methylidene}-5-nitro-2-indolinone]",200 to 201 °C
